Results: US7312248B2, “Control of parasites in animals by the use of novel trifluoromethanesulfonanilide oxime ether derivatives” (Schering-Plough Animal Health Corporation, priority 2004, dated 2007)
Read-outs that look alike come from different tables or passages of the source.

Columns and labels:
[1] = tested on: cat flea (Ctenocephalides felis); experiment: whole plant or invertebrate; type: in vivo; conditions: Ctenocephalides felis; for mortality at 1.26 µg/cm2, 1.26 µg/cm2: Laboratory 2 B data
Procedure, shortened: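 Single-dose screen at 1.26 μg/cm^2: acetone solution dried for 24 h on a Coatasil-treated 159 mm^2 flask base, then 15 adult cat fleas aged 3-7 days per flask, four or more replicates, acetone control. Percent dead, meaning not moving or unable to right themselves, recorded after 8, 24 and/or 48 h at 25 °C and 75% RH.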

[2] = tested on: Brown Dog Tick (Rhipicephalus sanguineus); experiment: Rapid screening protocol for topical application on brown dog ticks; type: in vivo; conditions: for R. sanguineus Mortality (%) 48 h: Laboratory 2 F data; for Rhipicephalus sanguineus Mortality (%) 24 h / mortality at 5 µg/tick: topical, 24 h; for Rhipicephalus sanguineus Mortality (%) 24 h: 10 μg of active per tick in 1 μL acetone, adult ticks, Laboratory 1 E data; for mortality at 5 µg/tick: Rhipicephalus sanguineus, read-out: R. sanguineus Mortality (%) 24 h
Protocol: d) Rapid Screening Protocol for Topical Application on Brown Dog Ticks (Rhipicephalus sanguineus)
The aim of the test was to determine the presence of significant acaricidal activity in sample compounds or formulations when applied topically on brown dog ticks. A tick was defined as dead if it gave no apparent response when touched lightly and observed for 1 minute. […] Both permethrin and fipronil were employed as reference compounds. The insect species tested was the Brown Dog Tick (Rhipicephalus sanguineus). Mixed sex adult ticks were used for tests. The strain used was cultured by von Berky Veterinary Services, Woody Point, QLD, AU and supplied as unfed adult ticks (mixed sex). Ticks were maintained in controlled conditions (temp. 18°+2° C., humidity 75±5% RH).
Temperature was maintained at 25±1° C. and the humidity was ambient. […] Ticks were each treated on the abdomen with 1 μL of a single dose level of test sample in acetone; ten ticks were treated with solvent only (acetone) in each test. Tests were replicated 4 times (total of 40 ticks treated). […]

[3] = 8 h, read-out: C. felis Mortality (%) 8 h, 8 h
[4] = 24 h, read-out: C. felis Mortality (%) 24 h, 24 h
[5] = 24 h, read-out: Ctenocephalides felis Mortality (%) 24 h
[6] = 48 h, read-out: Ctenocephalides felis Mortality (%) 48 h
[7] = 8 h, read-out: Ctenocephalides felis Mortality (%) 8 h

Row | SMILES | mortality at 1.26 µg/cm2, 1.26 µg/cm2 [1, 3] | mortality at 1.26 µg/cm2, 1.26 µg/cm2 [1, 4] | R. sanguineus Mortality (%) 48 h [2] | mortality at 1.26 µg/cm2 [1, 5] | mortality at 1.26 µg/cm2 [1, 6] | Rhipicephalus sanguineus Mortality (%) 24 h [2] | mortality at 5 µg/tick [2] | mortality at 1.26 µg/cm2 [1, 7]
1 | CC/C(=N\Oc1ccc(Cl)cc1)c1ccc(C(F)(F)F)cc1NS(=O)(=O)C(F)(F)F [Compound 201] | 85% | 100% | 22% | – | – | – | – | –
2 | CC/C(=N\OCc1ccc(Cl)cc1)c1ccc(C(F)(F)F)cc1NS(=O)(=O)C(F)(F)F [Compound 220] | 54% | 100% | 62% | – | – | – | – | –
3 | C/C(=N\Oc1ccc(F)cc1)c1ccc(C(F)(F)F)cc1NS(=O)(=O)C(F)(F)F [Compound 200, N-{2-[1-(4-fluorophenoxyimino)ethyl]-5-trifluoromethylphenyl}trifluoromethanesulfonamide] | 93% | 100% | 17% | – | – | – | – | –
4 | CC/C(=N\OCc1ccc(Cl)cc1)c1cc(Cl)ccc1N(C(C)=O)S(=O)(=O)C(F)(F)F [Compound 307, N-acetyl-N-{4-chloro-2-[1-(4-chlorobenzyloxyimino)propyl]phenyl}trifluoromethanesulfonamide] | – | – | – | 10% | 98% | 5% | – | –
5 | CC(C)/C(=N\Oc1ccc(F)cc1)c1cc(Cl)ccc1NS(=O)(=O)C(F)(F)F [Compound 216] | 97% | 100% | 72% | – | – | – | – | –
6 | CC/C(=N\OCc1ccc(C(F)(F)F)cc1)c1ccc(C(F)(F)F)cc1NS(=O)(=O)C(F)(F)F [Compound 221] | 44% | 100% | 67% | – | – | – | – | –
7 | C/C(=N\OCc1ccc(C(F)(F)F)cc1)c1ccc(C(F)(F)F)cc1NS(=O)(=O)C(F)(F)F [Compound 219] | 69% | 100% | 60% | – | – | – | – | –
8 | CC/C(=N\OCc1ccc(Cl)cc1)c1cc(Cl)ccc1N(COC(=O)C(C)(C)C)S(=O)(=O)C(F)(F)F [Compound 303] | – | – | – | 0% | 76% | 2% | – | –
9 | CCC/C(=N\OC(C)C)c1cc(Cl)ccc1NS(=O)(=O)C(F)(F)F [Compound 191] | 52% | 100% | 92% | – | – | – | – | –
10 | CCC(O/N=C(\C)c1cc(Cl)ccc1NS(=O)(=O)C(F)(F)F)c1ccccc1 (stereo not drawn) [Compound 255] | 1% | 100% | – | – | – | – | 22% | –
11 | CC/C(=N\OCCOC)c1cc(Cl)ccc1NS(=O)(=O)C(F)(F)F [Compound 183] | 100% | 100% | 100% | – | – | – | – | –
12 | C/C(=N\OCc1cccs1)c1cc(Cl)ccc1NS(=O)(=O)C(F)(F)F [Compound 190] | 98% | 100% | 75% | – | – | – | – | –
13 | C/C(=N\OCC1CCCCC1)c1ccc(C(F)(F)F)cc1NS(=O)(=O)C(F)(F)F [Compound 217] | 46% | 90% | 30% | – | – | – | – | –
14 | CCOCN(c1ccc(Cl)cc1/C(CC)=N/OCc1ccc(Cl)cc1)S(=O)(=O)C(F)(F)F [Compound 302] | – | – | – | 3% | 82% | 5% | – | –
15 | C/C(=N\OCC1CCCO1)c1cc(Cl)ccc1NS(=O)(=O)C(F)(F)F (stereo not drawn) [Compound 203] | 98% | 98% | 95% | – | – | – | – | –
16 | CC/C(=N\OCc1ccccn1)c1cc(Cl)ccc1NS(=O)(=O)C(F)(F)F [Compound 204] | 100% | 100% | 87% | – | – | – | – | –

Row | SMILES | mortality at 1.26 µg/cm2, 1.26 µg/cm2 [1, 3] | mortality at 1.26 µg/cm2, 1.26 µg/cm2 [1, 4] | R. sanguineus Mortality (%) 48 h [2] | mortality at 1.26 µg/cm2 [1, 5] | mortality at 1.26 µg/cm2 [1, 6] | Rhipicephalus sanguineus Mortality (%) 24 h [2] | mortality at 5 µg/tick [2] | mortality at 1.26 µg/cm2 [1, 7]
17 | O=S(=O)(Nc1ccc(Cl)cc1/C(=N/OCC1CCCCC1)C1CCCCC1)C(F)(F)F [Compound 209] | 38% | 93% | 22% | – | – | – | – | –
18 | C/C(=N\Oc1ccc(Cl)cc1)c1ccc(C(F)(F)F)cc1NS(=O)(=O)C(F)(F)F [Compound 199, N-{2-[1-(4-chlorophenoxyimino)ethyl]-5-trifluoromethylphenyl}trifluoromethanesulfonamide] | 82% | 100% | 5% | – | – | – | – | –
19 | CC/C(=N\OCC(F)(F)F)c1cc(Cl)ccc1NS(=O)(=O)C(F)(F)F [Compound 184] | 100% | 100% | 92% | – | – | – | – | –
20 | CC(C)(C)/C(=N\Oc1ccc(F)cc1)c1cc(Cl)ccc1NS(=O)(=O)C(F)(F)F [Compound 198, N-{4-chloro-2-[1-(4-fluorophenoxyimino)2,2-dimethylpropyl]phenyl}trifluoromethanesulfonamide] | 16% | 92% | 35% | – | – | – | – | –
21 | CC/C(=N\OC(C)c1ccc(Cl)cc1)c1cc(Cl)ccc1NS(=O)(=O)C(F)(F)F (stereo not drawn) [Compound 257] | 5% | 96% | – | – | – | – | 40% | –
22 | CCCCc1cc(-c2cc(Cl)ccc2NS(=O)(=O)C(F)(F)F)no1 [Compound 291] | – | – | – | 100% | – | 67% | – | 91%
23 | C/C(=N\OCc1ccc(Cl)cc1)c1ccc(C(F)(F)F)cc1NS(=O)(=O)C(F)(F)F [Compound 218] | 90% | 100% | 75% | – | – | – | – | –
24 | O=S(=O)(Nc1ccc(Cl)cc1/C(=N/OC1CCCCC1)C1CCCCC1)C(F)(F)F [Compound 212] | 24% | 100% | 57% | – | – | – | – | –
25 | CCC/C(=N\OC1CCCC1)c1cc(Cl)ccc1NS(=O)(=O)C(F)(F)F [Compound 195] | 33% | 100% | 97% | – | – | – | – | –
26 | CC/C(=N\Oc1ccc(F)cc1)c1ccc(C(F)(F)F)cc1NS(=O)(=O)C(F)(F)F [Compound 214] | 98% | 100% | 20% | – | – | – | – | –
27 | CCO/N=C(/c1cc(Cl)ccc1NS(=O)(=O)C(F)(F)F)C1CCCCC1 [Compound 213] | 53% | 100% | 90% | – | – | – | – | –
28 | CC/C(=N\OCC1CCCCC1)c1ccc(C(F)(F)F)cc1NS(=O)(=O)C(F)(F)F [Compound 222] | 27% | 96% | 32% | – | – | – | – | –
29 | O=S(=O)(Nc1ccc(Cl)cc1-c1ccon1)C(F)(F)F [Compound 293] | – | – | – | 100% | – | 80% | – | 60%
30 | O=S(=O)(Nc1ccc(Cl)cc1/C(=N/OC1CCCC1)C1CCCCC1)C(F)(F)F [Compound 211] | 46% | 100% | 90% | – | – | – | – | –
31 | CC(=O)N(c1ccc(Cl)cc1/C(C)=N/Oc1ccc(F)cc1)S(=O)(=O)C(F)(F)F [Compound 308] | – | – | – | 100% | – | 7% | – | 29%
